According to patent publication US10259810B2, “N-sulfonylated pyrazolo[3,4-b]pyridin-6-carboxamides and method of use” (AbbVie S.à.r.l., priority 2015, dated 2019):

Assays:
ΔF508-CFTR [1] = target: T1, ΔF508-CFTR (Homo sapiens, UniProt P13569, DEL508-508); assay: CFTR cell surface levels using HRP-tagged ΔF508-CFTR expressing CFBE cells, in the presence of a co-corrector; type: cell-based; conditions: HRP-tagged ΔF508-CFTR CFBE cells, in the presence of 3 μM co-corrector; for EC50: read-out: EC50
T1 construct: host or cells: CFBE41o-, doxycycline-inducible
Summary of the method: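 Chemiluminescent read-out of surface HRP (15 min, dark) after PBS washes. Activity is normalized as 100×(sample−DMSO)/(3 μM co-corrector alone−DMSO).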

ΔF508-CFTR [2] = target: T1, ΔF508-CFTR; assay: CFTR cell surface levels using HRP-tagged ΔF508-CFTR expressing CFBE cells, intrinsic corrector capacity; type: cell-based; parameters: % Activation: concentration or dose not given beside the values; conditions: HRP-tagged ΔF508-CFTR expressing CFBE41o- cells, compound alone (intrinsic corrector capacity), 20 hours at 33° C.; for EC50: read-out: EC50
Summary of the method: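 Read-out: chemiluminescent HRP activity of ECL4-HRP-tagged ΔF508-CFTR at the cell surface, 15 min substrate in dark. Normalized as 100×(sample−DMSO)/(positive control−DMSO).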

T1 sequence (P13569 with tags, fused parts or gaps DEL508-508): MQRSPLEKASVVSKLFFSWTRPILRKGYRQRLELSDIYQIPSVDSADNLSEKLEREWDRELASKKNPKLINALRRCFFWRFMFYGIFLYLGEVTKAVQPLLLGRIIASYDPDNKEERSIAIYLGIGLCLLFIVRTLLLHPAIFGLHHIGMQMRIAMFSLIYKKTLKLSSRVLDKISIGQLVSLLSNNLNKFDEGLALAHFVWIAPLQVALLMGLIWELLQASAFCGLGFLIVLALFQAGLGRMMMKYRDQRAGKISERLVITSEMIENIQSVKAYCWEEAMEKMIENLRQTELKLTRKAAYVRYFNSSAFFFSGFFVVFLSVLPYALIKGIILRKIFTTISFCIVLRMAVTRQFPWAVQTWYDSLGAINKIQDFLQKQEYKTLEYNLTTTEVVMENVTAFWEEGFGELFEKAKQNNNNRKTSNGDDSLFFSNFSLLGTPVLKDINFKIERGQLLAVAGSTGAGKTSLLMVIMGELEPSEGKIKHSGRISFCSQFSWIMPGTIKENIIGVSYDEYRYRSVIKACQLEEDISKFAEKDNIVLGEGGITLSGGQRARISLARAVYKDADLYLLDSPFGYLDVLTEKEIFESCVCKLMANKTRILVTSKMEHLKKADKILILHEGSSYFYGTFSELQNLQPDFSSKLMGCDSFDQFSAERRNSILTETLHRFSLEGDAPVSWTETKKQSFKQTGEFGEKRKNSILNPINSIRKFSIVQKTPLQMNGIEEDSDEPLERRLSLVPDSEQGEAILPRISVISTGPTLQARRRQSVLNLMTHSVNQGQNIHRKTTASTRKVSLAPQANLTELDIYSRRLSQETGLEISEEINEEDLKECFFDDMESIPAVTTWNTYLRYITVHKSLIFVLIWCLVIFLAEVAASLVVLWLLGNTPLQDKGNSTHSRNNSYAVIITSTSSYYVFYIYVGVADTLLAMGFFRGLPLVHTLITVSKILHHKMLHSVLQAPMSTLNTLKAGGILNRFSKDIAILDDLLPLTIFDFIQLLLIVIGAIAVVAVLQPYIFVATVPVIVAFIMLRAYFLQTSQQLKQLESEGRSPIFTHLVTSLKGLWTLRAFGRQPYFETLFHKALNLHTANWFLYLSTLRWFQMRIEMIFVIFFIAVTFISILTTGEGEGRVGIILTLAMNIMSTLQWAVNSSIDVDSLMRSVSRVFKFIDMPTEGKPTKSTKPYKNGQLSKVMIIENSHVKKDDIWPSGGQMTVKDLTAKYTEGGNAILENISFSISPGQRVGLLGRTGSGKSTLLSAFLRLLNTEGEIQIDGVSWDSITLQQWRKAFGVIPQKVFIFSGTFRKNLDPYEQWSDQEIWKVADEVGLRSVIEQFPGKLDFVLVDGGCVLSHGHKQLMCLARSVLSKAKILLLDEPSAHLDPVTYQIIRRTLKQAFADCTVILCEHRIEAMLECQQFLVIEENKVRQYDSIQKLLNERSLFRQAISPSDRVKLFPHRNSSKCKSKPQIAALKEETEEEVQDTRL

| SMILES | % Activation (ΔF508-CFTR [1]) [%] | EC50 (ΔF508-CFTR [1]) [nM] | % Activation (ΔF508-CFTR [2]) [%] | EC50 (ΔF508-CFTR [2]) [nM] |
| --- | --- | --- | --- | --- |
| Cc1nn(-c2ccc(F)cc2F)c2nc(C(=O)NS(C)(=O)=O)cc(-c3ccc(N4CCOCC4)cc3)c12 [Compound 21, 1-(2,4-difluorophenyl)-N-(methanesulfonyl)-3-methyl-4-[4-(morpholin-4-yl)phenyl]-1H-pyrazolo[3,4-b]pyridine-6-carboxamide] | 440.1 | 525 | 264.25 | 685 |
| COCC1CCN(c2cc(C(=O)NS(=O)(=O)N3CCC[C@H]3C(=O)N3CCN(C)CC3)nc3c2c(C2CCC2)nn3-c2ccccc2)CC1 [Compound 389, 3-cyclobutyl-4-[4-(methoxymethyl)piperidin-1-yl]-N-[(2S)-2-(4-methylpiperazine-1-carbonyl)pyrrolidine-1-sulfonyl]-1-phenyl-1H-pyrazolo[3,4-b]pyridine-6-carboxamide] | 305.1 | 297 | 165 | 556 |
| CCS(=O)(=O)NC(=O)c1cc(-c2ccc(N(C)C)nc2)c2c(C3CC3)nn(C3CCCCC3)c2n1 [Compound 92, 1-cyclohexyl-3-cyclopropyl-4-[6-(dimethylamino)pyridin-3-yl]-N-(ethanesulfonyl)-1H-pyrazolo[3,4-b]pyridine-6-carboxamide] | 367.67 | 278 | 175.77 | 553 |
| COCC1CCN(c2cc(C(=O)N(C)S(C)(=O)=O)nc3c2c(C2CCC2)nn3-c2ccccc2)CC1 [Compound 657, 3-cyclobutyl-N-(methanesulfonyl)-4-[4-(methoxymethyl)piperidin-1-yl]-N-methyl-1-phenyl-1H-pyrazolo[3,4-b]pyridine-6-carboxamide] | 270.75 | 197 | 98 | 281 |
| CC(C)c1nn(-c2cc(F)cc(F)c2)c2nc(C(=O)NS(C)(=O)=O)cc(-c3ccc(N4CCC(C#N)CC4)cc3)c12 [Compound 130, 4-[4-(4-cyanopiperidin-1-yl)phenyl]-1-(3,5-difluorophenyl)-N-(methanesulfonyl)-3-(propan-2-yl)-1H-pyrazolo[3,4-b]pyridine-6-carboxamide] | 496.9 | 540 | 318.25 | 541 |
| CC(C)c1nn(-c2ccc(F)cc2)c2nc(C(=O)NS(C)(=O)=O)cc(N3CCN(C4CCC4)CC3)c12 [Compound 280, 4-(4-cyclobutylpiperazin-1-yl)-1-(4-fluorophenyl)-N-(methanesulfonyl)-3-(propan-2-yl)-1H-pyrazolo[3,4-b]pyridine-6-carboxamide] | 323.37 | 1010 | 121.9 | 1010 |
| CS(=O)(=O)NC(=O)c1cc(N2CC3(CCCCC3)C2)c2c(C3CCC3)nn(-c3ccccc3)c2n1 [Compound 192, 4-(2-azaspiro[3.5]nonan-2-yl)-3-cyclobutyl-N-(methanesulfonyl)-1-phenyl-1H-pyrazolo[3,4-b]pyridine-6-carboxamide] | 254.6 | 866 | 81.49 | 1140 |
| CN(C)S(=O)(=O)NC(=O)c1cc(-c2ccc(CCN3CCOCC3)cc2)c2c(C3CCC3)nn(C3CCCCC3)c2n1 [Compound 476, 3-cyclobutyl-1-cyclohexyl-N-(dimethylsulfamoyl)-4-{4-[2-(morpholin-4-yl)ethyl]phenyl}-1H-pyrazolo[3,4-b]pyridine-6-carboxamide] | 355.65 | 151 | 134.2 | 215 |
| CCOc1nccc(-n2nc(C3CCC3)c3c(N4CCC(N5CCOCC5)CC4)cc(C(=O)NS(=O)(=O)N(C)C)nc32)n1 [Compound 622, 3-cyclobutyl-N-(dimethylsulfamoyl)-1-(2-ethoxypyrimidin-4-yl)-4-[4-(morpholin-4-yl)piperidin-1-yl]-1H-pyrazolo[3,4-b]pyridine-6-carboxamide] | 251.25 | 309 | 89.445 | 568 |
| COCC1CCCN(c2cc(C(=O)NS(C)(=O)=O)nc3c2c(C2CCC2)nn3-c2ccccc2)C1 (stereo not drawn) [Compound 153, 3-cyclobutyl-N-(methanesulfonyl)-4-[3-(methoxymethyl)piperidin-1-yl]-1-phenyl-1H-pyrazolo[3,4-b]pyridine-6-carboxamide] | 290.05 | 130 | 146.7 | 355 |
| COCC1CCN(c2cc(C(=O)NS(C)(=O)=O)nc3c2c(C(C)C)nn3-c2cccc(C)c2)CC1 [Compound 156, N-(methanesulfonyl)-4-[4-(methoxymethyl)piperidin-1-yl]-1-(3-methylphenyl)-3-(propan-2-yl)-1H-pyrazolo[3,4-b]pyridine-6-carboxamide] | 636.47 | 360 | 411 | 439 |
| CN1CCCN(C(=O)c2cc(N3CCC(N4CCOCC4)CC3)c3c(C4CCC4)nn(-c4ccccc4)c3n2)S1(=O)=O [Compound 664, 2-{3-cyclobutyl-4-[4-(morpholin-4-yl)piperidin-1-yl]-1-phenyl-1H-pyrazolo[3,4-b]pyridine-6-carbonyl}-6-methyl-1λ^6,2,6-thiadiazinane-1,1-dione] | 230.48 | 172 | 70.082 | 278 |
| CC(C)N(C)S(=O)(=O)NC(=O)c1cc(N2CCC(N3CCOCC3)CC2)c2c(C3CCC3)nn(-c3ccc(F)cc3)c2n1 [Compound 482, 3-cyclobutyl-1-(4-fluorophenyl)-N-[methyl(propan-2-yl)sulfamoyl]-4-[4-(morpholin-4-yl)piperidin-1-yl]-1H-pyrazolo[3,4-b]pyridine-6-carboxamide] | 436.4 | 61.6 | 214.1 | 88.2 |
| CC(C)c1nn(C2CCCOC2)c2nc(C(=O)NS(C)(=O)=O)cc(-c3ccc(N4CCOCC4)cc3)c12 (stereo not drawn) [Compound 39, N-(methanesulfonyl)-4-[4-(morpholin-4-yl)phenyl]-1-(oxan-3-yl)-3-(propan-2-yl)-1H-pyrazolo[3,4-b]pyridine-6-carboxamide] | 378.63 | 508 | 143.4 | 838 |
| CC(C)c1nn(-c2cccc(N3CCOCC3)c2)c2nc(C(=O)NS(C)(=O)=O)cc(-c3cnc(N4CCC(C#N)CC4)nc3)c12 [Compound 99, 4-[2-(4-cyanopiperidin-1-yl)pyrimidin-5-yl]-N-(methanesulfonyl)-1-[3-(morpholin-4-yl)phenyl]-3-(propan-2-yl)-1H-pyrazolo[3,4-b]pyridine-6-carboxamide] | 601.15 | 337 | 414.8 | 410 |
| CC(C)c1nn(-c2ccnc(N3CCOCC3)c2)c2nc(C(=O)NS(=O)(=O)N(C)C)cc(OCC3CCOCC3)c12 [Compound 489, N-(dimethylsulfamoyl)-1-[2-(morpholin-4-yl)pyridin-4-yl]-4-[(oxan-4-yl)methoxy]-3-(propan-2-yl)-1H-pyrazolo[3,4-b]pyridine-6-carboxamide] | 280 | 241 | 99.6 | 141 |
| CCS(=O)(=O)NC(=O)c1cc(-c2ccc(OC)cc2)c2c(C)nn(-c3ccc(C)c(Cl)c3)c2n1 [Compound 114, 1-(3-chloro-4-methylphenyl)-N-(ethanesulfonyl)-4-(4-methoxyphenyl)-3-methyl-1H-pyrazolo[3,4-b]pyridine-6-carboxamide] | 277.45 | 952 | 130.85 | 1140 |
| CCOC(=O)N1CCC(c2cc(C(=O)NS(=O)(=O)N(C)C)nc3c2c(C(C)C)nn3-c2ccc(F)cc2)CC1 [Compound 497, ethyl 4-{6-[(dimethylsulfamoyl)carbamoyl]-1-(4-fluorophenyl)-3-(propan-2-yl)-1H-pyrazolo[3,4-b]pyridin-4-yl}piperidine-1-carboxylate] | 378.25 | 288 | 195.7 | 410 |
| CC(C)c1nn(C2CCC(F)(F)CC2)c2nc(C(=O)NS(C)(=O)=O)cc(-c3ccc(N4CCOCC4)cc3)c12 [Compound 38, 1-(4,4-difluorocyclohexyl)-N-(methanesulfonyl)-4-[4-(morpholin-4-yl)phenyl]-3-(propan-2-yl)-1H-pyrazolo[3,4-b]pyridine-6-carboxamide] | 447.7 | 581 | 182 | 850 |
| CCS(=O)(=O)NC(=O)c1cc(-c2ccc(N(C)C)nc2)c2c(C(C)C)nn(-c3cccc(N4CCOCC4)c3)c2n1 [Compound 32, 4-[6-(dimethylamino)pyridin-3-yl]-N-(ethanesulfonyl)-1-[3-(morpholin-4-yl)phenyl]-3-(propan-2-yl)-1H-pyrazolo[3,4-b]pyridine-6-carboxamide] | 526 | 234 | 277.65 | 372 |
| Cc1nn(-c2cccc(C(F)(F)F)c2)c2nc(C(=O)NS(C)(=O)=O)cc(-c3ccc(N4CCOCC4)nc3)c12 [Compound 57, N-(methanesulfonyl)-3-methyl-4-[6-(morpholin-4-yl)pyridin-3-yl]-1-[3-(trifluoromethyl)phenyl]-1H-pyrazolo[3,4-b]pyridine-6-carboxamide] | 440 | 657 | 219.65 | 1020 |
